According to patent publication US4879381A, “7-(substituted or unsubstituted amino) 3-substituted methyl-^3 cephem-4-carboxylic acid” (Toyoma Chemical Company, Ltd., priority 1980, dated 1989):
In brackets after ≈: the same amount, converted by molar mass. Where a name gives a salt, the structure may show the parent alone. Read-outs that look alike come from different tables or passages of the source.

How the values were obtained:
Assay type in all cases: cell-based
Kl. pneumoniae Y-41 = test: Antibacterial activity (MIC, agar plate)
Description: (§1) According to the standard method of the Japanese Chemotherapeutic Society [Chemotherapy, Vol. 23, Pages 1-2 (1975)], a culture obtained by cultivating bacteria in Heart Infusion broth (manufactured by Eken Kagakusha) at 37° C. for 20 hours was inoculated into a Heart Infusion agar medium (manufactured by Eiken Kagakusha) and cultivated at 37° C. for 20 hours, after which the growth of bacteria was examined visually. The minimum inhibitory concentration at which the bacterial growth was inhibited was taken as MIC (μg/ml). The amount of the inoculated bacteria was 10^4 cells/plate (10^6 cells/ml).

Klebsiella spp Y-72 = test: Antibacterial activity (MIC, agar plate); conditions: Klebsiella spp Y-72, 10^4 cells/plate, 37° C., 20 hours
Description: as §1

Al. faecalis B-1 = test: Antibacterial activity (MIC, agar plate)
Description: as §1

Aci. calcoaceticus A-6 = test: Antibacterial activity (MIC, agar plate); conditions: 37° C., 20 hours
Description: as §1

[1] = system: Pro. vulgaris GN76 (Cephalosporinase-producing bacteria); test: Antibacterial activity (MIC, agar plate)
Description: as §1

Ent. cloacae IID977 = test: Antibacterial activity (MIC, agar plate); conditions: 10^4 cells/plate, 37° C., 20 hours
Description: as §1

Pro. morganii T-216 = test: Antibacterial activity (MIC, agar plate)
Description: as §1

[2] = system: E. coli TK3 (Penicillinase-producing bacteria); test: Antibacterial activity (MIC, agar plate)
Description: as §1

Ser. marcescens IID620 = test: Antibacterial activity (MIC, agar plate)
Description: as §1

Kl. pneumoniae Y-50 = test: Antibacterial activity (MIC, agar plate); conditions: 37° C., 20 hours
Description: as §1

Pro. mirabilis T-111 = test: Antibacterial activity (MIC, agar plate)
Description: as §1

Pro. mirabilis T-100 = test: Antibacterial activity (MIC, agar plate); conditions: 37° C., 20 hours
Description: as §1

E. coli NIHJ = test: Antibacterial activity (MIC, agar plate, standard method of the Japanese Chemotherapeutic Society); conditions: 10^4 cells/plate, 37° C., 20 hours
Description: as §1

[3] = Kl. pneumoniae Y-41, 10^4 cells/plate, 37° C., 20 hours
[4] = E. coli TK3 (penicillinase-producing), 10^4 cells/plate, 37° C., 20 hours
[5] = Pro. mirabilis T-111, 10^4 cells/plate, 37° C., 20 hours
[6] = Klebsiella pneumoniae, Y41, Kl. pneumoniae Y-41, 10^4 cells/plate, 37° C., 20 hours, read-out: MIC
[7] = Alcaligenes faecalis, B1, Al. faecalis B-1, 10^4 cells/plate, 37° C., 20 hours, read-out: MIC
[8] = Acinetobacter calcoaceticus, A6, 10^4 cells/plate, read-out: MIC
[9] = Enterobacter cloacae, read-out: MIC
[10] = Morganella morganii, T216, 20 h
[11] = Serratia marcescens, IID620, 20 h
[12] = Klebsiella pneumoniae, Y50, 10^4 cells/plate, read-out: MIC
[13] = Proteus mirabilis, T100, 10^4 cells/plate, read-out: MIC
[14] = Escherichia coli, read-out: MIC
[15] = Proteus vulgaris, Pro. vulgaris GN76 (cephalosporinase-producing), 10^4 cells/plate, 37° C., 20 hours, read-out: MIC
[16] = Morganella morganii, T216, Pro. morganii T-216, 10^4 cells/plate, 37° C., 20 hours, read-out: MIC
[17] = Serratia marcescens, Ser. marcescens IID620, 10^4 cells/plate, 37° C., 20 hours, read-out: MIC
[18] = Proteus mirabilis, T111, Pro. mirabilis T-111, 10^4 cells/plate, 37° C., 20 hours, read-out: MIC
[19] = Klebsiella pneumoniae, Y41, 20 h

| SMILES | MIC (Kl. pneumoniae Y-41; [6]) | MIC (Al. faecalis B-1; [7]) | MIC (Aci. calcoaceticus A-6; [8]) | MIC (Ent. cloacae IID977; [9]) | MIC (Pro. morganii T-216; [10]) | MIC ([2]; Escherichia coli, 20 h) | MIC (Kl. pneumoniae Y-50; [12]) | MIC (Pro. mirabilis T-111; Proteus mirabilis, T111, 20 h) | MIC (Pro. mirabilis T-100; [13]) | MIC (E. coli NIHJ; [14]) | MIC [1, 15] | other results |
| --- | --- | --- | --- | --- | --- | --- | --- | --- | --- | --- | --- | --- |
| CO/N=C(\C(=O)NC1C(=O)N2C(C(=O)O)=C(Cn3cnc(NC(C)=O)n3)CS[C@H]12)c1csc(N)n1.O=C(O)C(F)(F)F (stereo partly drawn) [A, Trifluoroacetic acid salt of 7-[2-(2-aminothiazol-4-yl)-2-(syn)-methoxyiminoacetamido]-3-[(3-acetamido-1,2,4-triazolyl)methyl]-Δ^3-cephem-4-carboxylic acid] | – | – | – | – | – | – | – | – | – | – | – | MIC (Kl. pneumoniae Y-41; [3]): 0.2 µg/mL; MIC (Klebsiella spp Y-72): 6.25 µg/mL; MIC (Al. faecalis B-1; Al. faecalis B-1, 10^4 cells/plate, 37° C., 20 hours): 50 µg/mL; MIC (Aci. calcoaceticus A-6; 10^4 cells/plate): 25 µg/mL; MIC ([1]; Pro. vulgaris GN76 (cephalosporinase-producing), 10^4 cells/plate, 37° C., 20 hours): 3.13 µg/mL; MIC (Ent. cloacae IID977): 6.25 µg/mL; MIC (Pro. morganii T-216; Pro. morganii T-216, 10^4 cells/plate, 37° C., 20 hours): 0.2 µg/mL; MIC [2, 4]: 0.39 µg/mL; MIC (Ser. marcescens IID620; Ser. marcescens IID620, 10^4 cells/plate, 37° C., 20 hours): 0.78 µg/mL; MIC (Kl. pneumoniae Y-50; 10^4 cells/plate): ≤ 0.1 µg/mL; MIC (Pro. mirabilis T-111; [5]): 0.2 µg/mL; MIC (Pro. mirabilis T-100; 10^4 cells/plate): ≤ 0.1 µg/mL; MIC (E. coli NIHJ): ≤ 0.1 µg/mL |
| CO/N=C(\C(=O)NC1C(=O)N2C(C(=O)O)=C(CNC(=O)c3ccco3)CSC12)c1csc(N)n1 (stereo not drawn) [B, Trifluoroacetic acid salt of 7-[2-(2-aminothiazol-4-yl)-2-(syn)-methoxyiminoacetamido]-3-(furan-2-yl-carboxamido)methyl-Δ^3-cephem-4-carboxylic acid] | 0.2 µg/mL | 12.5 µg/mL | 25 µg/mL | 25 µg/mL | 0.39 µg/mL | 0.39 µg/mL | ≤ 0.1 µg/mL | 0.2 µg/mL | ≤ 0.1 µg/mL | ≤ 0.1 µg/mL | – | MIC (Klebsiella spp Y-72; Y72, read-out: MIC): 1.56 µg/mL; MIC ([1]; Proteus vulgaris, GN76, 20 h): 0.78 µg/mL; MIC (Ser. marcescens IID620; [11]): 0.2 µg/mL |
| CO/N=C(\C(=O)NC1C(=O)N2C(C(=O)O)=C(CNC(C)=O)CSC12)c1csc(N)n1 (stereo not drawn) [C, Trifluoroacetic acid salt of 7-[2-(2-aminothiazol-4-yl)-2-(syn)-methoxyiminoacetamido]-3-acetamidomethyl-Δ^3-cephem-4-carboxylic acid] | 0.2 µg/mL | 12.5 µg/mL | 12.5 µg/mL | 50 µg/mL | – | 0.39 µg/mL | ≤ 0.1 µg/mL | 0.39 µg/mL | ≤ 0.1 µg/mL | ≤ 0.1 µg/mL | 6.25 µg/mL | MIC (Klebsiella spp Y-72; Y72, read-out: MIC): 6.25 µg/mL; MIC (Pro. morganii T-216; [16]): 0.78 µg/mL; MIC (Ser. marcescens IID620; [17]): 1.56 µg/mL |
| Cc1nnc(SCC2=C(C(=O)O)N3C(=O)[C@@H](NC(=O)Cn4cnnn4)[C@H]3SC2)s1 [Cephazoline, reference compound] | 3.13 µg/mL (≈ 6.89 µM) | 100 µg/mL (≈ 220 µM) | 200 µg/mL (≈ 440 µM) | > 200 µg/mL | – | – | 1.56 µg/mL (≈ 3.43 µM) | – | – | 1.56 µg/mL (≈ 3.43 µM) | > 200 µg/mL | MIC (Klebsiella spp Y-72; Y72, read-out: MIC): > 200 µg/mL; MIC (Pro. morganii T-216; [16]): > 200 µg/mL; MIC ([2]; Escherichia coli, E. coli TK3 (penicillinase-producing), 10^4 cells/plate, 37° C., 20 hours, read-out: MIC): 25 µg/mL (≈ 55 µM); MIC (Ser. marcescens IID620; [17]): > 200 µg/mL; MIC (Pro. mirabilis T-111; [18]): 6.25 µg/mL (≈ 13.8 µM) |
| CO/N=C(\C(=O)NC1C(=O)N2C(C(=O)O)=C(Cn3ncnn3)CSC12)c1csc(N)n1 (stereo not drawn) [F, Trifluoroacetic acid salt of 7-[2-(2-aminothiazol-4-yl)-2-(syn)-methoxyiminoacetamido]-3-[2-(1,2,3,4-tetrazolyl)methyl]-Δ^3-cephem-4-carboxylic acid] | ≤ 0.1 µg/mL | – | 6.25 µg/mL | 12.5 µg/mL | ≤ 0.1 µg/mL | ≤ 0.1 µg/mL | ≤ 0.1 µg/mL | ≤ 0.1 µg/mL | – | ≤ 0.1 µg/mL | 0.78 µg/mL | MIC (Al. faecalis B-1; Alcaligenes faecalis, B1, 20 h): 3.13 µg/mL; MIC (Ser. marcescens IID620; [11]): 0.39 µg/mL |
| CO/N=C(\C(=O)NC1C(=O)N2C(C(=O)O)=C(Cn3cnnn3)CSC12)c1csc(N)n1 (stereo not drawn) [G, Trifluoroacetic acid salt of 7-[2-(2-aminothiazol-4-yl)-2-(syn)-methoxyiminoacetamido]-3-[1-(1,2,3,4-tetrazolyl)methyl]-Δ^3-cephem-4-carboxylic acid] | 0.2 µg/mL | 12.5 µg/mL | 25 µg/mL | 6.25 µg/mL | 0.2 µg/mL | 0.39 µg/mL | ≤ 0.1 µg/mL | 0.2 µg/mL | – | ≤ 0.1 µg/mL | – | MIC ([1]; Proteus vulgaris, GN76, 20 h): 0.78 µg/mL; MIC (Ser. marcescens IID620; [17]): 1.56 µg/mL |
| CO/N=C(\C(=O)NC1C(=O)N2C(C(=O)O)=C(Cn3nnc(N)n3)CSC12)c1csc(N)n1 (stereo not drawn) [H, Trifluoroacetic acid salt of 7-[2-(2-aminothiazol-4-yl)-2-(syn)-methoxyiminoacetamido]-3-[2-(5-amino-1,2,3,4-tetrazolyl)methyl]-Δ^3-cephem-4-carboxylic acid] | 0.39 µg/mL | 12.5 µg/mL | 25 µg/mL | 12.5 µg/mL | 0.78 µg/mL | 0.78 µg/mL | 0.2 µg/mL | 0.39 µg/mL | – | ≤ 0.1 µg/mL | 1.56 µg/mL | MIC (Ser. marcescens IID620; [11]): 0.78 µg/mL |
| CO/N=C(\C(=O)NC1C(=O)N2C(C(=O)O)=C(Cn3nnc(NC(C)=O)n3)CSC12)c1csc(N)n1 (stereo not drawn) [I, Trifluoroacetic acid salt of 7-[2-(2-aminothiazol-4-yl)-2-(syn)-methoxyiminoacetamido]-3-[2-(5-acetamido-1,2,3,4-tetrazolyl)methyl]-Δ^3-cephem-4-carboxylic acid] | – | – | – | – | – | 0.39 µg/mL | ≤ 0.1 µg/mL | ≤ 0.1 µg/mL | ≤ 0.1 µg/mL | ≤ 0.1 µg/mL | – | MIC (Kl. pneumoniae Y-41; [19]): 0.2 µg/mL |
| CO/N=C(\C(=O)NC1C(=O)N2C(C(=O)O)=C(Cn3nnc(C)n3)CSC12)c1csc(N)n1 (stereo not drawn) [J, Trifluoroacetic acid salt of 7-[2-(2-aminothiazol-4-yl)-2-(syn)-methoxyiminoacetamido]-3-[2-(5-methyl-1,2,3,4-tetrazolyl)methyl]-Δ^3-cephem-4-carboxylic acid] | – | – | – | – | – | 0.39 µg/mL | ≤ 0.1 µg/mL | – | ≤ 0.1 µg/mL | ≤ 0.1 µg/mL | – | MIC (Kl. pneumoniae Y-41; [19]): ≤ 0.39 µg/mL; MIC (Pro. mirabilis T-111; [18]): 0.2 µg/mL |
| CCc1nnn(CC2=C(C(=O)O)N3C(=O)C(NC(=O)/C(=N\OC)c4csc(N)n4)C3SC2)n1 (stereo not drawn) [K, Trifluoroacetic acid salt of 7-[2-(2-aminothiazol-4-yl)-2-(syn)-methoxyiminoacetamido]-3-[2-(5-ethyl-1,2,3,4-tetrazolyl)methyl]-Δ^3-cephem-4-carboxylic acid] | 0.78 µg/mL | – | – | – | – | 0.39 µg/mL | 0.2 µg/mL | 0.78 µg/mL | ≤ 0.1 µg/mL | ≤ 0.1 µg/mL | – | – |
| CO/N=C(\C(=O)NC1C(=O)N2C(C(=O)O)=C(Cn3cnc(Cl)n3)CS[C@H]12)c1csc(N)n1.O=C(O)C(F)(F)F (stereo partly drawn) [L, Trifluoroacetic acid salt of 7-[2-(2-aminothiazol-4-yl)-2-(syn)-methoxyiminoacetamido]-3-[(3-chloro-1,2,4-triazolyl)methyl]-Δ^3-cephem-4-carboxylic acid] | – | – | – | – | – | – | – | – | – | – | – | MIC (Kl. pneumoniae Y-41; [3]): 0.39 µg/mL; MIC [2, 4]: 0.39 µg/mL; MIC (Kl. pneumoniae Y-50; 10^4 cells/plate): ≤ 0.1 µg/mL; MIC (Pro. mirabilis T-111; [5]): 0.78 µg/mL; MIC (Pro. mirabilis T-100; 10^4 cells/plate): ≤ 0.1 µg/mL; MIC (E. coli NIHJ): ≤ 0.1 µg/mL |
| CC(=O)Nc1nnn(CC2=C(C(=O)O)N3C(=O)C(NC(=O)Cc4csc(N)n4)C3SC2)n1 (stereo not drawn) [M, Trifluoroacetic acid salt of 7-[2-(2-aminothiazol-4-yl)acetamido]-3-[2-(5-acetamido-1,2,3,4-tetrazolyl)methyl]-Δ^3-cephem-4-carboxylic acid] | 0.78 µg/mL | – | – | – | – | 1.56 µg/mL | 0.78 µg/mL | 0.78 µg/mL | 0.39 µg/mL | 0.39 µg/mL | – | – |
| Nc1nc(CC(=O)NC2C(=O)N3C(C(=O)O)=C(Cn4ncnn4)CSC23)cs1 (stereo not drawn) [N, Trifluoroacetic acid salt of 7-[2-(2-aminothiazol-4-yl)acetamido]-3-[2-(1,2,3,4-tetrazolyl)methyl]-Δ^3-cephem-4-carboxylic acid] | 0.78 µg/mL | – | – | – | – | 1.56 µg/mL | 0.39 µg/mL | 0.78 µg/mL | 0.39 µg/mL | 0.39 µg/mL | – | – |
